In assay [1] the test system is prototrophic yeast strain (CEN.PK113-7D). The assay can be described thus: Yeast outgrowth in YPD liquid medium (CLS of aged cells). The class given is cell-based, Saccharomyces cerevisiae. The following applies: age point day 14. The procedure: (§1) CLS experiments were performed in 96-well plates with 200 μL yeast culture. Cellular inoculums were transferred into 96-well plates containing serially double-diluted concentrations (0 to 10 nM) of rapamycin. Cellular inoculum was transferred into 96-well plates containing serially double-diluted concentrations (0 to 8 mM) of 2,5-anhydro-D-mannitol, D-fructose, D-mannitol, D-maltose, and D-sorbitol in SD medium. Cells were incubated at 30° C., and the growth was measured at different time points. […] Cell survival was quantified at various age time points by three different approaches: (i) PI fluorescence-based method, (ii) outgrowth in YPD liquid medium, and (iii) spotting assay (FIG. 1).
Outgrowth (OD600) of aged cells was measured by the microplate reader. Quantification of cell survival for each age point was determined as relative to Day 1 (considered 100% cell survival). This quantification was performed by using the formula,
[formula] • where OutgrowthDay n refers to the OD600 nm absorbance reading recorded on a specific day, OutgrowthDay 1 refers to the OD600 nm absorbance reading recorded on the first day where 100% cell survival is assumed.
The CLS of the aged cells was further determined by the yeast outgrowth in YPD liquid medium method as described above. […] At chronological age point day 14, 3-μL of culture were transferred to a second 96-well plate containing 200 μL YPD medium.

The test system is the same in assay [2]. The assay can be described thus: Propidium iodide fluorescence-based CLS method in yeast (incl. high-throughput screening).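 As to PI intensity: untreated reference is eight DMSO and water control wells per plate.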 The class given is cell-based, Saccharomyces cerevisiae. As to conditions: for Yeast CLS increase: Yes/No call of the screen. As for the experimental part:
Yeast strain was recovered from frozen glycerol stock at 30° C. on YPD agar medium. Yeast was left to propagate in SD medium overnight at 30° C. with shaking at 220 revolutions per minute (rpm). Cells propagated overnight were diluted to a starting optical density at 600 nm (OD600) of approximately 0.2 in fresh SD medium to begin the chronological lifespan (CLS) experiments.
as §1
Yeast cells (40 μL) from different age time points were transferred into a second 96-well plate (different to the 96-well plate in which the CLS analysis as outlined above was performed). Cells were washed and incubated in 100 μL 1×phosphate buffered saline (PBS) with propidium iodide (PI) (5 μg/mL) for 15 minutes in the dark. Positive and negative control samples were included for quantitative analysis. Positive control (cells boiled at 100° C. for 15 minutes) was PI-stained and processed in the same 96-well plate. Samples without PI-stained cells served as the negative control. After incubation, cells were washed and resuspended in 100 μL PBS. The fluorescence reading of the samples (excitation and emission wavelengths at 535 nm and 617 nm, respectively) and OD600 were measured with a microplate reader (BioTek, Winooski, Vermont, United States). The fluorescence intensity of each sample was normalized with OD600. The background fluorescence signal of the unstained negative sample was subtracted from the normalized fluorescence intensity of each sample. The obtained fluorescence intensity of the positive control (boiled dead cells) was considered 0% cell survival. Cell death was validated by allowing the boiled dead cells to grow in medium. Cell survival at different age time points of samples were calculated by normalizing the fluorescence intensity with positive control sample (boiled cells).
High-throughput screening of various chemicals was tested using the same protocol for the propidium iodide fluorescence-based method as described above. The prototrophic yeast strain (CEN.PK113-7D) was grown in the synthetic defined medium with different chemical reagents at their respective single testing concentration (Table 1) in addition to eight replicates of DMSO and water controls in 96-well plates at 30° C.

Setting [3] is: concentration tested 100 μM, OD600 nm after 24 h in YPD at 30° C.
[4] abbreviates: concentration tested 100 μM, solvent DMSO or water, chronological age point Day 7 (72 h growth = Day 1), lower = more survival.
The mark [5] stands for this setting: concentration tested 30 μg/mL, OD600 nm after 24 h in YPD.
The mark [6] stands for this setting: concentration tested 30 μg/mL, solvent water, age point Day 7.

Where a name gives a salt, the structure may show the parent alone.

`CC1(C)[C@@H](O[C@H]2O[C@H](C(=O)[O-])[C@@H](O)[C@H](O)[C@H]2O[C@@H]2O[C@H](C(=O)[O-])[C@@H](O)[C@H](O)[C@H]2O)CC[C@]2(C)[C@H]3C(=O)C=C4[C@@H]5C[C@@](C)(C(=O)O)CC[C@]5(C)CC[C@@]4(C)[C@]3(C)CC[C@@H]12.[K+].[K+]` [Dipotassium glycyrrhizinate]: the Outgrowth in assay [1] (setting [3]) is reported as 0.1. Besides, the “Yeast CLS increase” value in assay [2] (concentration tested 100 μM) is on record as “No”. Further, in assay [2] (setting [4]), the PI intensity was 68,519.8.
In the same order, the values of `CC1(C)CCC2=C(O1)c1ccccc1C(=O)C2=O` [β-Lapachone] are 0.1, “No” and 67,892.9.
In the same order, the values of `C=C[C@@H]1C2=CCOC(=O)C2=CO[C@H]1O[C@@H]1O[C@H](CO)[C@@H](O)[C@H](O)[C@H]1O` [Gentiopicroside] are 0.1, “No” and 59,804.7.
In assay [1] (setting [5]), Chondroitin (sulfate) gave an Outgrowth of 0.1. The “Yeast CLS increase” value in assay [2] (concentration tested 30 μg/mL) is recorded as “No”. In addition, the PI intensity in assay [2] (setting [6]) is listed as 75,572.6.
In turn, `Nc1c(Br)cc(Br)cc1CN[C@H]1CC[C@H](O)CC1` [Ambroxol (hydrochloride), reference compound] had an Outgrowth in assay [1] (setting [3]) of 0.1. For the same molecule, the “Yeast CLS increase” value in assay [2] (concentration tested 100 μM) was “No”. Further, in assay [2] (setting [4]), the PI intensity is 63,509.0.
Turning to `NC[C@H](CC(=O)O)c1ccc(Cl)cc1` [(R)-Baclofen, reference compound], the Outgrowth in assay [1] (setting [3]) stood at 0.1. Besides, the “Yeast CLS increase” value in assay [2] (concentration tested 100 μM) was “No”. Moreover, the PI intensity in assay [2] (setting [4]) is 61,049.3.
Taken in the same sequence, the figures for `COc1cc(C(=O)O)ccc1O` [Vanillic acid] were 0.1, “No” and 64,546.4.
`CCCCC[C@H](O)CC(=O)CCc1ccc(O)c(OC)c1` [[6]-Gingerol]: the Outgrowth in assay [1] (setting [3]) worked out at 0.1. For the same molecule, the “Yeast CLS increase” value in assay [2] (concentration tested 100 μM) is given as “No”. The PI intensity in assay [2] (setting [4]) is 61,395.3.
On to Polidocanol [reference compound], for which, in assay [1] (setting [5]), the Outgrowth was 0.1. Besides, the “Yeast CLS increase” value in assay [2] (concentration tested 30 μg/mL) is given as “No”. In addition, the PI intensity in assay [2] (setting [6]) was 74,745.5.
In assay [1] (setting [3]), `CCc1ccc(O)cc1` [4-Ethylphenol] returned an Outgrowth of 0.1. Further, the “Yeast CLS increase” value in assay [2] (concentration tested 100 μM) is reported as “No”. Further, the PI intensity in assay [2] (setting [4]) is 58,041.7.
In assay [1] (setting [3]), Estrone sulfate (potassium) showed an Outgrowth of 0.1. In assay [2] (concentration tested 100 μM), the “Yeast CLS increase” value is given as “No”. In addition, the PI intensity in assay [2] (setting [4]) is listed as 54,751.8.
Taken in the same sequence, the figures for `C=C1[C@H](OC(=O)c2ccccc2)C[C@H]2[C@@H](/C=C(\C)C(=O)[C@@]3(OC(C)=O)C[C@H](C)[C@H](OC(=O)c4ccccc4)[C@@H]3[C@H]1OC(C)=O)C2(C)C` [Euphorbia Factor L2] were 0.1, “No” and 68,871.8.
As to `O=C1N[C@@H]2C(=C[C@H](O)[C@@H](O)[C@H]2O)c2cc3c(c(O)c21)OCO3` [Narciclasine], in assay [1] (setting [3]), the Outgrowth is 0.1. Further, the “Yeast CLS increase” value in assay [2] (concentration tested 100 μM) is on record as “No”. For the same molecule, in assay [2] (setting [4]), the PI intensity was 67,161.8.
In assay [1] (setting [3]), `O=c1ccn([C@@H]2O[C@H](CO)[C@@H](O)[C@H]2O)c(=O)[nH]1` [Uridine] gave an Outgrowth of 0.1. Besides, the “Yeast CLS increase” value in assay [2] (concentration tested 100 μM) was “No”. Also, the PI intensity in assay [2] (setting [4]) is recorded as 84,894.9.
Taken in the same sequence, the figures for `O=C(/C=C/c1ccc(O)c(O)c1)O[C@@H]1C[C@](O)(C(=O)O)C[C@@H](OC(=O)/C=C/c2ccc(O)c(O)c2)[C@H]1O` [Isochlorogenic acid A] were 0.1, “No” and 63,157.7.
In the same order, the values of `CN[C@@H]1C[C@H]2O[C@@](C)([C@@H]1OC)n1c3ccccc3c3c4c(c5c6ccccc6n2c5c31)C(=O)NC4` [Staurosporine] are 0.1, “No” and 67,250.9.
In the same order, the values of `COc1ccc(C=CC(=O)O)cc1` [4-Methoxycinnamic acid] are 0.1, “No” and 89,890.5.
The molecule `CC(C)CCC[C@@H](C)[C@H]1CC[C@H]2[C@@H]3CC[C@H]4CC(=O)CC[C@]4(C)[C@H]3CC[C@]12C` [5α-Cholestan-3-one] showed an Outgrowth in assay [1] (setting [3]) of 0.1. Also, the “Yeast CLS increase” value in assay [2] (concentration tested 100 μM) is listed as “No”. Further, the PI intensity in assay [2] (setting [4]) is 62,022.6.
Regarding `O=c1c(O[C@@H]2O[C@H](CO)[C@@H](O)[C@H](O)[C@H]2O[C@@H]2O[C@H](CO)[C@@H](O)[C@H](O)[C@H]2O)c(-c2ccc(O)c(O)c2)oc2cc(O)cc(O)c12` [Baimaside], the Outgrowth in assay [1] (setting [3]) was 0.2. Also, in assay [2] (concentration tested 100 μM), the “Yeast CLS increase” value is given as “No”. Besides, in assay [2] (setting [4]), the PI intensity was 61,895.7.
Taken in the same sequence, the figures for `CC(=O)N[C@@H](Cc1ccc(O)cc1)C(=O)O` [N-Acetyl-L-tyrosine] were 0.1, “No” and 57,322.5.
In the same order, the values of `C[C@](N)(Cc1ccc(O)cc1)C(=O)O` [Metyrosine, reference compound] are 0.1, “No” and 76,947.2.
Taken in the same sequence, the figures for `O=C(O)C(O)Cc1ccccc1` (racemic) [DL-3-Phenyllactic acid] were 0.1, “No” and 65,266.9.
Take `C#CC1(O)CC[C@H]2[C@@H]3CCC4=CC(=O)CC[C@@H]4[C@H]3CC[C@@]21CC` (mixture of isomers) [Norgestrel, reference compound]: the Outgrowth in assay [1] (setting [3]) is given as 0.1. Further, the “Yeast CLS increase” value in assay [2] (concentration tested 100 μM) is “No”. The PI intensity in assay [2] (setting [4]) was 75,338.8.
In the same order, the values of `CC1(C)CC[C@]2(C(=O)O)CC[C@]3(C)C(=CC[C@@H]4[C@@]5(C)CC[C@H](O)[C@@](C)(CO)[C@@H]5CC[C@]43C)[C@@H]2C1` [Hederagenin] are 0.1, “No” and 73,281.0.
For `Cl.Cl.[O-][S+]1c2ccccc2N=C(N2CCN(CCOCCO)CC2)c2ccccc21` (stereo not drawn) [Quetiapine sulfoxide (dihydrochloride)], in assay [1] (setting [3]), the Outgrowth is reported as 0.1. Besides, the “Yeast CLS increase” value in assay [2] (concentration tested 100 μM) is reported as “No”. In addition, the PI intensity in assay [2] (setting [4]) is reported as 68,761.6.
In turn, `CCCCCCCCCCCCCCCC(=O)NCCO` [Impulsin] returned an Outgrowth in assay [1] (setting [3]) of 0.1. Also, the “Yeast CLS increase” value in assay [2] (concentration tested 100 μM) was “No”. Also, the PI intensity in assay [2] (setting [4]) is 71,903.7.
In the same order, the values of `CO[C@H]1/C=C/O[C@@]2(C)Oc3c(C)c([O-])c4c(O)c(cc(O)c4c3C2=O)NC(=O)/C(C)=C\C=C\[C@H](C)[C@H](O)[C@@H](C)[C@@H](O)[C@@H](C)[C@H](OC(C)=O)[C@@H]1C.[Na+]` [Rifamycin (sodium), reference compound] are 0.6, “Yes” and 39,446.0.
Taken in the same sequence, the figures for `Cn1cc(C[C@H](N)C(=O)O)c2ccccc21` [(S)-Indoximod] were 0.1, “No” and 78,648.2.
In the same order, the values of Gramicidin [reference compound] are 0.1, “No” and 79,922.3.

Source of the values: patent US20250161338A1, “Compounds for Anti-aging Intervention” (AGENCY FOR SCIENCE, TECHNOLOGY AND RESEARCH, priority 2022, published 2025).
